# Measurements taken from paper PMC7674269 (Biochemistry, 2020).
# T1: sortilin (Homo sapiens, UniProt Q99523)
# T1 sequence (Q99523 78-755): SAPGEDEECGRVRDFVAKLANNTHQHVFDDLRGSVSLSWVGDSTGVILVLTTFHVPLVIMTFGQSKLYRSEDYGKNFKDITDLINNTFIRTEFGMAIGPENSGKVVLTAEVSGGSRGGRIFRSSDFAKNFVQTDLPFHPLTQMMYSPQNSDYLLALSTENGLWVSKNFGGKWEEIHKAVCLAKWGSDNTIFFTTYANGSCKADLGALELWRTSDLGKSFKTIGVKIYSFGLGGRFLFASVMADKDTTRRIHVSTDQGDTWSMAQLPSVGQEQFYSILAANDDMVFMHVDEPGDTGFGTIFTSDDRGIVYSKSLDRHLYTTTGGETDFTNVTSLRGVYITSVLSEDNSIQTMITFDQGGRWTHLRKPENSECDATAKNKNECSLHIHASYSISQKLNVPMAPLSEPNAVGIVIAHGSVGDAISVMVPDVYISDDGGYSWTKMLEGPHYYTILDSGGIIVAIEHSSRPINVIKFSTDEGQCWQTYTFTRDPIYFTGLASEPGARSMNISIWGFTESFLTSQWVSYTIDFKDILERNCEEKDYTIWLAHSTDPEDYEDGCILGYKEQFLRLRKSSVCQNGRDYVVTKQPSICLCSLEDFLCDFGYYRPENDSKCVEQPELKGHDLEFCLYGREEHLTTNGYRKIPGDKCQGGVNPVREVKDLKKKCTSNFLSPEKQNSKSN
# T2: Neurotensin C-terminal fragment (Ct-NT) C-terminal 4 residues (Homo sapiens, UniProt P30990)
# T2 chain: PYIL
# Tests used:
# sortilin = biological target: T1, sortilin; experiment: SPR, immobilised sortilin, CM5 chip; assay type: binding
# [1] = biological target: T2, Neurotensin C-terminal fragment (Ct-NT) …; experiment: SPR
# [2] = biological target: T2, Neurotensin C-terminal fragment (Ct-NT) …; experiment: SPR competition with PIP3 nanodiscs
Molecule,Kd (sortilin) [nM],Kd [1] [nM],IC50 [2] [nM]
CCCCCCCC(=O)OC[C@H](COP(=O)(O)O[C@H]1[C@H](O)[C@@H](OP(=O)(O)O)[C@H](OP(=O)(O)O)[C@@H](OP(=O)(O)O)[C@H]1O)OC(=O)CCCCCCC [diC8-PIP3],4200 ± 400,,
Sortilin luminal beta-propeller domain (protein) NNTHQHVFDDLRGSVSLSWVGDSTGVILVLTTFHVPLVIMTFGQSKLYRSEDYGKNFKDITDLINNTFIRTEFGMAIGPENSGKVVLTAEVSGGSRGGRIFRSSDFAKNFVQTDLPFHPLTQMMYSPQNSDYLLALSTENGLWVSKNFGGKWEEIHKAVCLAKWGSDNTIFFTTYANGSCKADLGALELWRTSDLGKSFKTIGVKIYSFGLGGRFLFASVMADKDTTRRIHVSTDQGDTWSMAQLPSVGQEQFYSILAANDDMVFMHVDEPGDTGFGTIFTSDDRGIVYSKSLDRHLYTTTGGETDFTNVTSLRGVYITSVLSEDNSIQTMITFDQGGRWTHLRKPENSECDATAKNKNECSLHIHASYSISQKLNVPMAPLSEPNAVGIVIAHGSVGDAISVMVPDVYISDDGGYSWTKMLEGPHYYTILDSGGIIVAIEHSSRPINVIKFSTDEGQCWQTYTFTRDPIYFTGLASEPGARSMNISIWGFTESFLTSQWVSYTIDF,,~120,157

# The remaining molecules from weak to strong by Kd (sortilin), led by results:
Kd (sortilin) [nM],Kd [1] [nM],IC50 [2] [nM],Molecule
6900 ± 1100,,,C[C@@H](NC(=O)c1ccccc1NCC(=O)O)c1ccccc1 [cpd541]
118 ± 38,,,"CN1CCC[C@H]1C(=O)Nc1cccc(NC(=O)CCc2ccccc2)c1 [cpd984, (2S)-1-methylN-3-[(3-phenypropanoyl)-amino]phenylpyrrolidine-2-carboxamied]"
